Test results: ChEMBL document CHEMBL1212695, “An allosteric potentiator of M4 mAChR modulates hippocampal synaptic transmission” (Nat Chem Biol, 2008)
Values belong to the compound of their own block, whether it stands above or below them. The source made the active and inactive calls. No cut-off for these calls is given here.

Tests used:
[1] = target: T1, Muscarinic acetylcholine receptor M4 (Rattus norvegicus) (UniProt P08485); experiment: (§1) Allosteric activation of rat recombinant muscarinic M4 receptor expressed in CHO cells assessed as potentiation of 10 uM acetylcholine-induced calcium mobilization after 1 hr by fluorescence assay; type: functional, cell-based
T1 sequence (whole entry): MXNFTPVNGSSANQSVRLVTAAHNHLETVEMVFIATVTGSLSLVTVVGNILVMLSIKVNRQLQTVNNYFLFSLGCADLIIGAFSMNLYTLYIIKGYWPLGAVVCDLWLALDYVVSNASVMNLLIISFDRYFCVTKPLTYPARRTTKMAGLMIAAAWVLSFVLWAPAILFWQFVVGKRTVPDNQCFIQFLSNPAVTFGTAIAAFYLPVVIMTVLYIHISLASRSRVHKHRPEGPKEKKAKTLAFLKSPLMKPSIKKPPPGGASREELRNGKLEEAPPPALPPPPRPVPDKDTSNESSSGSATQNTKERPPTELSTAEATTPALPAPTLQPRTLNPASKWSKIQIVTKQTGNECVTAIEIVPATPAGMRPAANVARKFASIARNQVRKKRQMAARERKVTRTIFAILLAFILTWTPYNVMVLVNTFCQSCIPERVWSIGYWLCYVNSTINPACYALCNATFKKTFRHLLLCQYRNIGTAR

[2] = target: T1, Muscarinic acetylcholine receptor M4 (Rattus norvegicus); experiment: Allosteric activation of rat recombinant muscarinic M4 receptor expressed in CHO cells assessed as […] in acetylcholine EC50 for induction of calcium mobilization at 10 uM after 1 hr by fluorescence assay; type: functional, cell-based
[3] = target: T2, Muscarinic acetylcholine receptor M4 (Rattus norvegicus, UniProt P08485); experiment: as §1; type: functional, cell-based
T2 sequence (P08485 whole entry): T1 sequence (whole entry)

[4] = target: T3, Muscarinic acetylcholine receptor M1 (Rattus norvegicus) (UniProt P08482); experiment: Allosteric activation of rat recombinant muscarinic M1 receptor expressed in CHO cells assessed as potentiation of acetylcholine-induced calcium mobilization at 10 uM after 1 hr by fluorescence assay; type: functional, cell-based
T3 sequence (whole entry): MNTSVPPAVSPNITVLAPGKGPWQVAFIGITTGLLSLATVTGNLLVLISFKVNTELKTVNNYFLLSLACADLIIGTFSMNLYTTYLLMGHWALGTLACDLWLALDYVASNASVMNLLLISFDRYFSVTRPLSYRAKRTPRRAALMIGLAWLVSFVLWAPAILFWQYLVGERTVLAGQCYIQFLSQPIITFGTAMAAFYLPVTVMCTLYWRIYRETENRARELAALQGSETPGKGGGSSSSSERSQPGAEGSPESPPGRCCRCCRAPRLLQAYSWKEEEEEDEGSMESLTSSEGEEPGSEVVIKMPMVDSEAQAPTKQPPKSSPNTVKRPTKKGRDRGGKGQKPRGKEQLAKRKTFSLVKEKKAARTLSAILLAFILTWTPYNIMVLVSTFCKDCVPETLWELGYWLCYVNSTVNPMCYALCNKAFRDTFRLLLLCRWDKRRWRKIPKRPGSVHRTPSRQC

[5] = target: T4, Muscarinic acetylcholine receptor M2 (Rattus norvegicus) (UniProt P10980); experiment: Allosteric activation of rat recombinant muscarinic M2 receptor expressed in CHO cells assessed as potentiation of acetylcholine-induced calcium mobilization at 10 uM after 1 hr by fluorescence assay; type: functional, cell-based
T4 sequence (whole entry): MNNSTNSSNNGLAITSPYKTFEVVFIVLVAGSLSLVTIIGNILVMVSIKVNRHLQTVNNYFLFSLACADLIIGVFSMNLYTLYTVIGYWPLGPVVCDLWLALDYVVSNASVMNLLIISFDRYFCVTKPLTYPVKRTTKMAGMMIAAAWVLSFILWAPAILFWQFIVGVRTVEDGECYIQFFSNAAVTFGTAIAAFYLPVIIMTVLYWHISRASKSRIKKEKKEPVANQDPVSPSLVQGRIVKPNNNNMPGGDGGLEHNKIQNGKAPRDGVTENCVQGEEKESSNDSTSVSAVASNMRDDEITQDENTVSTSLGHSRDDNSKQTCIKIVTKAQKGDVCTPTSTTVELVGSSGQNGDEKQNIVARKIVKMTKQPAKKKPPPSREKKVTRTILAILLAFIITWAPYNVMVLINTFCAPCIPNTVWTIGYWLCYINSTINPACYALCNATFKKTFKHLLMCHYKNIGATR

[6] = target: Muscarinic acetylcholine receptor M3 (Rattus norvegicus) (UniProt P08483); experiment: Allosteric activation of rat recombinant muscarinic M3 receptor expressed in CHO cells assessed as potentiation of acetylcholine-induced calcium mobilization at 10 uM after 1 hr by fluorescence assay; type: functional, cell-based
[7] = target: T5, Muscarinic acetylcholine receptor M5 (Rattus norvegicus) (UniProt P08911); experiment: Allosteric activation of rat recombinant muscarinic M5 receptor expressed in CHO cells assessed as potentiation of acetylcholine-induced calcium mobilization at 10 uM after 1 hr by fluorescence assay; type: functional, cell-based
T5 sequence (whole entry): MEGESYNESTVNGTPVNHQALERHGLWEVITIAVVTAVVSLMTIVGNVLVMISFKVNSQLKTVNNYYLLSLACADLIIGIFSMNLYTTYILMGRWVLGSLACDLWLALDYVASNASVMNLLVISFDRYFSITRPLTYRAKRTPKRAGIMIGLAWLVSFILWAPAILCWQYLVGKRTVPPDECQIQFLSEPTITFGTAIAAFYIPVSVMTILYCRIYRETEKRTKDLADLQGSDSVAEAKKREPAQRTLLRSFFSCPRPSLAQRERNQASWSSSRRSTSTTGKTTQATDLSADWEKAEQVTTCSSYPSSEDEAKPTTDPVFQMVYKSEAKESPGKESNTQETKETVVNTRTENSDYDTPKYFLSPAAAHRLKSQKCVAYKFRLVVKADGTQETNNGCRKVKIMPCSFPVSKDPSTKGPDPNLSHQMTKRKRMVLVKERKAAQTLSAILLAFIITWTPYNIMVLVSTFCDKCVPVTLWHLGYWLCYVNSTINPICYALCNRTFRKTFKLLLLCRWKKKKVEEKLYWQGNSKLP

[8] = target: T2, Muscarinic acetylcholine receptor M4; experiment: Allosteric activation of rat recombinant muscarinic M4 receptor expressed in CHO cells assessed as potentiation of 15 nM acetylcholine-induced calcium mobilization after 1 hr by fluorescence assay; type: functional, cell-based
[9] = target: T1, Muscarinic acetylcholine receptor M4 (Rattus norvegicus); experiment: Allosteric activation of rat recombinant muscarinic M4 receptor expressed in CHO cells assessed as induction of calcium mobilization after 1 hr by fluorescence assay; type: functional, cell-based
[10] = target: T1, Muscarinic acetylcholine receptor M4 (Rattus norvegicus); experiment: Agonist activity at muscarinic M4 receptor in Sprague-Dawley rat hippocampal CA1 pyramidal neuron assessed as reduction in excitatory postsynaptic current at 5 uM by whole-cell electrophysiology in presence of carbachol relative to control; type: functional, tissue-based; conditions: Hippocampus

Muscarinic acetylcholine receptor M3 (Rattus norvegicus), sequence (P08483 whole entry, looked up): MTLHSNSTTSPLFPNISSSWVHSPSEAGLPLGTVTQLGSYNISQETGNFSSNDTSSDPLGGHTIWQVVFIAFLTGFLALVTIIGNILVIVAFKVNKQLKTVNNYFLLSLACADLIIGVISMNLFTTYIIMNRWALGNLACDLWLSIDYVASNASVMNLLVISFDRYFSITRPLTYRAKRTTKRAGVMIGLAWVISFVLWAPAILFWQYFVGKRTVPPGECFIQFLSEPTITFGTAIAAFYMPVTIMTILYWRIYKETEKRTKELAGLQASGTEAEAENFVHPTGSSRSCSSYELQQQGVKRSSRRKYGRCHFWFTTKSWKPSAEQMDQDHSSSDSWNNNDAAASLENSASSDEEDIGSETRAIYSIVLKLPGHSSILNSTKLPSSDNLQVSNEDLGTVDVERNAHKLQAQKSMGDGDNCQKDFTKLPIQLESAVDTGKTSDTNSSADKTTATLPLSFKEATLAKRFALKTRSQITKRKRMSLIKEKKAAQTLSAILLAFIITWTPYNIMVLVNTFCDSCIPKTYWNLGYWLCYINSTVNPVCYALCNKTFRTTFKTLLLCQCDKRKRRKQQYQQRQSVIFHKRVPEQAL

Structure (SMILES): Cc1cc(C)c2c(N)c(C(=O)NCc3ccc(F)cc3)sc2n1
- fold change (FC) [2]: 30
- EC50 [3]: 0.3 µM

Structure (SMILES): Cc1cc(C)c2c(N)c(C(=O)NCc3ccc(C(F)(F)F)cc3)sc2n1
- fold change (FC) [2]: 37
- EC50 [3]: 0.715 µM

Structure (SMILES): Cc1cc(C)c2c(N)c(C(=O)NCc3ccco3)sc2n1
- Activity [4]: inactive
- fold change (FC) [2]: 21
- Activity [5]: inactive
- Activity [6]: inactive
- Activity [7]: inactive

Structure (SMILES): Cc1cc(C)c2c(N)c(C(=O)N[C@H](C)c3ccccc3)sc2n1
- Activity [1]: Active

Structure (SMILES): Cc1cc(C)c2c(N)c(C(=O)NC3CC3)sc2n1
- Activity [1]: Active

Structure (SMILES): Cc1cc(C)c2c(N)c(C(=O)N[C@@H](C)c3ccccc3)sc2n1
- Activity [1]: inactive
- inhibition [10]: 61.6%

Structure (SMILES): Cc1cc(C)c2c(N)c(C(=O)NCc3ccccc3)sc2n1
- Activity [4]: inactive
- Activity [5]: inactive
- Activity [6]: inactive
- EC50 [8]: 1.3 µM
- Activity [7]: inactive

Results, then the compound that gave them:

- Activity [1]: Active
Structure (SMILES): Cc1cc(C)c2c(N)c(C(=O)NC(C)(C)C)sc2n1

- Activity [1]: Active
Structure (SMILES): CCCNC(=O)c1sc2nc(C)cc(C)c2c1N

- Activity [4]: inactive
- Activity [5]: inactive
- Activity [6]: inactive
- EC50 [8]: 6 µM
- Activity [7]: inactive
Structure (SMILES): Cc1cc(C)c2c(N)c(C(=O)NC(C)C)sc2n1

- EC20 [9]: 0.015 µM
- EC100 [9]: 10 µM
Structure (SMILES): CC(=O)OCC[N+](C)(C)C

- Activity [1]: Active
Structure (SMILES): CCNC(=O)c1sc2nc(C)cc(C)c2c1N

- Activity [1]: Active
Structure (SMILES): Cc1cc(C)c2c(N)c(C(=O)NCC(C)C)sc2n1
